Results as given in patent US20260042731A1, “(2,4-DICHLOROPHENOXY)ACETIC ACID ANALOGS” (CORTEVA AGRISCIENCE LLC, priority 2022, published 2026).
Read-outs that look alike come from different tables or passages of the source.

Assays:
[1] = tested on: Ambrosia artemisiifolia (AMBEL), common ragweed; experiment: Postemergence herbicide evaluation, growth of Ambrosia artemisiifolia (AMBEL); assay type: in vivo; settings: Ambrosia artemisiifolia, post-emergence, read-out: AVE. AMBEL, percent reduction in plant size relative to the untreated control
[2] = tested on: weeds ABUTH, AMATA, AMBEL, CHEAL, ERICA; experiment: Postemergence herbicide evaluation, overall average % weed control (ABUTH, AMATA, AMBEL, CHEAL, ERICA); assay type: in vivo; settings: post-emergence, read-out: Overall Ave % Weed Control
[3] = Volatility of compounds measured by thermogravimetric analysis (TGA); assay type: physicochemical
[4] = tested on: Chenopodium album (CHEAL), common lambsquarters; experiment: Postemergence herbicide evaluation, growth of Chenopodium album (CHEAL); assay type: in vivo; settings: Chenopodium album, post-emergence, read-out: Ave. CHEAL, percent reduction in plant size relative to the untreated control
[5] = tested on: Abutilon theophrasti (ABUTH), velvetleaf; experiment: Postemergence herbicide evaluation, growth of Abutilon theophrasti (ABUTH); assay type: in vivo; settings: Abutilon theophrasti, post-emergence, read-out: AVE. ABUTH, percent reduction in plant size relative to the untreated control
[6] = tested on: glyphosate resistant Conyza canadensis (L.) (ERICA), horseweed; experiment: Postemergence herbicide evaluation, growth of Conyza canadensis (ERICA); assay type: in vivo; settings: Erigeron canadensis, post-emergence, read-out: Ave. ERICA, percent reduction in plant size relative to the untreated control
[7] = tested on: Amaranthus rudis (AMATA), tall water hemp; experiment: Postemergence herbicide evaluation, growth of Amaranthus rudis (AMATA); assay type: in vivo; settings: Amaranthus tuberculatus, post-emergence, read-out: Ave. AMATA, percent reduction in plant size relative to the untreated control

Structure (SMILES)	pest or weed control at 280 g/ha ([1]; 168 h) [%]	pest or weed control at 560 g/ha ([1]; 168 h) [%]	pest or weed control at 280 g/ha ([1]; 336 h) [%]	pest or weed control at 560 g/ha ([1]; 336 h) [%]	pest or weed control at 280 g/ha ([1]; 504 h) [%]	pest or weed control at 560 g/ha ([1]; 504 h) [%]	pest or weed control at 280 g/ha ([2]; 168 h) [%]	pest or weed control at 560 g/ha ([2]; 168 h) [%]	pest or weed control at 280 g/ha ([2]; 336 h) [%]	pest or weed control at 560 g/ha ([2]; 336 h) [%]	pest or weed control at 280 g/ha ([2]; 504 h) [%]	pest or weed control at 560 g/ha ([2]; 504 h) [%]	TGA Data (rate of weight loss, volatility) [3] [µg/min]	pest or weed control at 280 g/ha ([4]; 168 h) [%]	pest or weed control at 560 g/ha ([4]; 168 h) [%]	pest or weed control at 280 g/ha ([4]; 336 h) [%]	pest or weed control at 560 g/ha ([4]; 336 h) [%]	pest or weed control at 280 g/ha ([4]; 504 h) [%]	pest or weed control at 560 g/ha ([4]; 504 h) [%]	pest or weed control at 280 g/ha ([5]; 168 h) [%]	other results
O=C(COc1ccc(Cl)cc1Cl)Nc1ccncc1 [Compound D1, 2-(2,4-Dichlorophenoxy)-N-(pyridin-4-yl)acetamide]	60	65	89	94	78	99	69	72	83	87	89	93	0.05	68	75	78	85	97	93	78	pest or weed control at 560 g/ha ([5]; 168 h): 78%; pest or weed control at 280 g/ha ([5]; 336 h): 88%; pest or weed control at 560 g/ha ([5]; 336 h): 80%; pest or weed control at 280 g/ha ([5]; 504 h): 93%; pest or weed control at 560 g/ha ([5]; 504 h): 87%; pest or weed control at 280 g/ha ([6]; 168 h): 70%; pest or weed control at 560 g/ha ([6]; 168 h): 65%; pest or weed control at 280 g/ha ([6]; 336 h): 88%; pest or weed control at 560 g/ha ([6]; 336 h): 90%; pest or weed control at 280 g/ha ([6]; 504 h): 99%; pest or weed control at 560 g/ha ([6]; 504 h): 97%; pest or weed control at 280 g/ha ([7]; 168 h): 68%; pest or weed control at 560 g/ha ([7]; 168 h): 78%; pest or weed control at 280 g/ha ([7]; 336 h): 75%; pest or weed control at 560 g/ha ([7]; 336 h): 85%; pest or weed control at 280 g/ha ([7]; 504 h): 78%; pest or weed control at 560 g/ha ([7]; 504 h): 90%
O=C(COc1ccc(Cl)cc1Cl)n1ncc2ccccc21 [Compound D3, 2-(2,4-Dichlorophenoxy)-1-(1H-indazol-1-yl)ethanone]	63	68	75	90	73	95	59	65	64	74	63	73	0.03	68	68	63	70	63	70	30	pest or weed control at 560 g/ha ([5]; 168 h): 48%; pest or weed control at 280 g/ha ([5]; 336 h): 25%; pest or weed control at 560 g/ha ([5]; 336 h): 43%; pest or weed control at 280 g/ha ([5]; 504 h): 23%; pest or weed control at 560 g/ha ([5]; 504 h): 35%; pest or weed control at 280 g/ha ([6]; 168 h): 63%; pest or weed control at 560 g/ha ([6]; 168 h): 68%; pest or weed control at 280 g/ha ([6]; 336 h): 83%; pest or weed control at 560 g/ha ([6]; 336 h): 85%; pest or weed control at 280 g/ha ([6]; 504 h): 84%; pest or weed control at 560 g/ha ([6]; 504 h): 88%; pest or weed control at 280 g/ha ([7]; 168 h): 70%; pest or weed control at 560 g/ha ([7]; 168 h): 73%; pest or weed control at 280 g/ha ([7]; 336 h): 73%; pest or weed control at 560 g/ha ([7]; 336 h): 80%; pest or weed control at 280 g/ha ([7]; 504 h): 75%; pest or weed control at 560 g/ha ([7]; 504 h): 78%
